Data from US9221792B2, “N-(4-(azetidine-1-carbonyl) phenyl)-(hetero-) arylsulfonamide derivatives as pyruvate kinase M2 (PMK2) modulators” (AGIOS PHARMACEUTICALS, INC, priority 2010, dated 2015).

target: PKM2 (Homo sapiens, UniProt P14618); assay: PKM2 Assay (activation, LDH-coupled NADH absorbance at 340 nm); format: biochemical; settings: not given
Method: • PKM2 stock enzyme solution was diluted in Reaction Buffer • 2 μL of compound was added into each well first, and then 180 μL of the Reaction Mix was added. • Reaction mixture with compound (without ADP) were incubated for 30 minutes at 4° C. • Plates were re-equilibrated to room temperature prior to adding 20 μL ADP to initiate the reaction. • Reaction progress was measured as changes in absorbance at 340 nm wavelength at room temperature (25° C.) Reaction Mix: PKM2 (50 ng/well), ADP (0.7 mM), PEP (0.15 mM), NADH (180 μM), LDH (2 units) in Reaction Buffer Reaction Buffer: 100 mM KCl, 50 mM Tris pH 7.5, 5 mM MgCl2, 1 mM DTT, 0.03% BSA.
Certain compounds of Formula I were tested in the above-described assay. A compound described herein may be tested for its ability to activate PKM2. The activation activity of these compounds is represented as an AC50 in Table 2 and throughout the application. […] “B” refers to an activator of PKM2 with an EC50 between 100 nM and 1 μM. “C” refers to an activator of PKM2 with an EC50 between 1 μM and 10 μM. “D” refers to an activator of PKM2 with an EC50 greater than 10 μM. “NA” refers to data that is not available.

PKM2, sequence (P14618 whole entry): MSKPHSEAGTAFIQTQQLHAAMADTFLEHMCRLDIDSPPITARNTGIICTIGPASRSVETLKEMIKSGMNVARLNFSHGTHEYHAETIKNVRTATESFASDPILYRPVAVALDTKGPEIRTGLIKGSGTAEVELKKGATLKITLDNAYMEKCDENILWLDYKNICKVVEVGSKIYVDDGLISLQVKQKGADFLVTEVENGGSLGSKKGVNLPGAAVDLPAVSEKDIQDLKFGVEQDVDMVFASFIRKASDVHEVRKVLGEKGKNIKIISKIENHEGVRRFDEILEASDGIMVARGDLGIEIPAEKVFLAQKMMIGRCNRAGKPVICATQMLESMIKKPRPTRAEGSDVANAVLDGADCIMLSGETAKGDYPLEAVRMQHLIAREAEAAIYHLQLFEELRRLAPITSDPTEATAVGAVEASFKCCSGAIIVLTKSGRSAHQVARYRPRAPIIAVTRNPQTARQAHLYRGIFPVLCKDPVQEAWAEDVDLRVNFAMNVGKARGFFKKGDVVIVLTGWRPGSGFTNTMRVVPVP

Compound | AC50 [µM]
O=C(Cc1ccccc1)OC1CN(C(=O)c2ccc(NS(=O)(=O)c3cccc4cccnc34)cc2)C1 [Compound 123, 1-(4-(Quinoline-8-sulfonamido)benzoyl)azetidin-3-yl 2-phenylacetate] | 0.1 to 1

same assay, conditions: activation of PKM2; PKM2 50 ng/well, ADP 0.7 mM, PEP 0.15 mM, room temperature (25° C.); read-out: AC50

Compound | AC50 [µM]
COc1ccccc1OC1CN(C(=O)c2ccc(NS(=O)(=O)c3cccc4cccnc34)c(F)c2)C1 [Compound 154] | 0.1 to 1
CC1(O)CN(C(=O)c2ccc(NS(=O)(=O)c3cccc4cccnc34)c(F)c2)C1 [Compound 125] | > 10
COc1cccnc1NC1CN(C(=O)c2ccc(NS(=O)(=O)c3cccc4cccnc34)c(C)c2)C1 [Compound 149] | < 0.1
O=C(OC1CN(C(=O)c2ccc(NS(=O)(=O)c3cccc4cccnc34)c(F)c2)C1)c1ccccn1 [Compound 124, 1-(3-Fluoro-4-(quinoline-8-sulfonamido)benzoyl)azetidin-3-yl picolinate] | 1 to 10
O=C(c1ccc(NS(=O)(=O)c2cccc3cccnc23)cc1)N1CC(OCc2ccccc2)C1 [Compound 108, N-(4-(3-(benzyloxy)azetidine-1-carbonyl)phenyl)quinoline-8-sulfonamide] | 0.1 to 1
Cc1cc(C(=O)N2CC(OC(=O)Nc3ccccn3)C2)ccc1NS(=O)(=O)c1cccc2cccnc12 [Compound 155, 1-(3-Methyl-4-(quinoline-8-sulfonamido)benzoyl)azetidin-3-yl pyridin-2-ylcarbamate] | 0.1 to 1
COc1cc(NS(=O)(=O)c2cccc3cccnc23)ccc1C(=O)N1CC(O)(Cc2ccccc2)C1 [Compound 130, N-(4-(3-benzyl-3-hydroxyazetidine-1-carbonyl)-3-methoxyphenyl)quinoline-8-sulfonamide] | < 0.1
CC1(O)CN(C(=O)c2ccc(NS(=O)(=O)c3cccc4cccnc34)cc2)C1 [Compound 126] | > 10
C=CCNC(=O)NC1CN(C(=O)c2ccc(NS(=O)(=O)c3cccc4cccnc34)cc2)C1 [Compound 139, N-(4-(3-(3-Allylureido)azetidine-1-carbonyl)phenyl)quinoline-8-sulfonamide] | 1 to 10
Cc1cc(C(=O)N2CC(O)C2)ccc1NS(=O)(=O)c1cccc2cccnc12 [Compound 142] | 1 to 10
Cc1cc(C(=O)N2CC(O)(Cc3ccccc3)C2)ccc1NS(=O)(=O)c1cccc2cccnc12 [Compound 131, N-(4-(3-benzyl-3-hydroxyazetidine-1-carbonyl)-2-methylphenyl) quinoline-8-sulfonamide] | < 0.1
O=C(c1ccc(NS(=O)(=O)c2cccc3cccnc23)cc1)N1CC(=Cc2ccccc2)C1 [Compound 165] | 0.1 to 1
COc1cc(NS(=O)(=O)c2cccc3cccnc23)ccc1C(=O)N1CC(OC(=O)Nc2ccccn2)C1 [Compound 157, 1-(2-Methoxy-4-(quinoline-8-sulfonamido)benzoyl)azetidin-3-yl pyridin-2-ylcarbamate] | 0.1 to 1
COc1cc(NS(=O)(=O)c2cccc3cccnc23)ccc1C(=O)N1CC(O)(c2ccccc2)C1 [Compound 138] | < 0.1
Cc1cc(C(=O)N2CC(NC(=O)c3ccccn3)C2)ccc1NS(=O)(=O)c1cccc2cccnc12 [Compound 103, N-(1-(3-Methyl-4-(quinoline-8-sulfonamido)benzoyl)azetidin-3-yl)picolinamide] | 0.1 to 1
CC(C)NC(=O)NC1CN(C(=O)c2ccc(NS(=O)(=O)c3cccc4cccnc34)cc2)C1 [Compound 163] | 1 to 10
O=C(OC1CN(C(=O)c2ccc(NS(=O)(=O)c3cccc4cccnc34)cc2)C1)c1ccccn1 [Compound 102, 1-(4-(Quinoline-8-sulfonamido)benzoyl)azetidin-3-yl picolinate] | 1 to 10
COc1cc(NS(=O)(=O)c2cccc3cccnc23)ccc1C(=O)N1CC(O)C1 [Compound 143] | > 10
COc1ccccc1OC1CN(C(=O)c2ccc(NS(=O)(=O)c3cccc4cccnc34)cc2)C1 [Compound 129] | 0.1 to 1
Cc1cc(C(=O)N2CC(OCc3ccccc3)C2)ccc1NS(=O)(=O)c1cccc2cccnc12 [Compound 120, N-(4-(3-(benzyloxy)azetidine-1-carbonyl)-2-methylphenyl)quinoline-8-sulfonamide] | 0.1 to 1
O=C(c1ccc(NS(=O)(=O)c2cccc3cccnc23)cc1)N1CC(O)(Cc2ccccc2)C1 [Compound 101, N-(4-(3-benzyl-3-hydroxyazetidine-1-carbonyl)phenyl)quinoline-8-sulfonamide] | < 0.1
O=C(NC1CN(C(=O)c2ccc(NS(=O)(=O)c3cccc4cccnc34)cc2)C1)c1ccccn1 [Compound 111, N-(1-(4-(Quinoline-8-sulfonamido)benzoyl)azetidin-3-yl)picolinamide] | 1 to 10
COc1ncccc1NC1CN(C(=O)c2ccc(NS(=O)(=O)c3cccc4cccnc34)c(C)c2)C1 [Compound 148] | 0.1 to 1

Compound | AC50 [µM]
COc1ccccc1NC1CN(C(=O)c2ccc(NS(=O)(=O)c3cccc4cccnc34)cc2)C1 [Compound 113] | < 0.1
CC(C)NC(=O)OC1CN(C(=O)c2ccc(NS(=O)(=O)c3cccc4cccnc34)c(F)c2)C1 [Compound 134, 1-(3-Fluoro-4-(quinoline-8-sulfonamido)benzoyl)azetidin-3-yl isopropylcarbamate] | 1 to 10
O=C(c1ccc(NS(=O)(=O)c2cccc3cccnc23)c(F)c1)N1CC(Oc2ccccc2)C1 [Compound 107] | 0.1 to 1
O=C(NC1CN(C(=O)c2ccc(S(=O)(=O)Nc3cccc4cccnc34)cc2)C1)c1ccccn1 [Compound 104] | > 10
COc1ccccc1OC1CN(C(=O)c2ccc(NS(=O)(=O)c3cccc4cccnc34)cc2OC)C1 [Compound 150] | < 0.1
COc1ccccc1OC1CN(C(=O)c2ccc(NS(=O)(=O)c3cccc4cccnc34)c(C)c2)C1 [Compound 159] | < 0.1
COc1ccccc1NC1CN(C(=O)c2ccc(NS(=O)(=O)c3cccc4cccnc34)c(C)c2)C1 [Compound 114] | < 0.1
O=C(Nc1ccccn1)NC1CN(C(=O)c2ccc(NS(=O)(=O)c3cccc4cccnc34)cc2)C1 [Compound 160, N-(4-(3-(3-(Pyridin-2-yl)ureido)azetidine-1-carbonyl)phenyl)quinoline-8-sulfonamide] | 0.1 to 1
O=C(Nc1ccccn1)OC1CN(C(=O)c2ccc(NS(=O)(=O)c3cccc4cccnc34)cc2)C1 [Compound 161, 1-(4-(Quinoline-8-sulfonamido)benzoyl)azetidin-3-ylpyridin-2-ylcarbamate] | 1 to 10
COc1ccncc1NC1CN(C(=O)c2ccc(NS(=O)(=O)c3cccc4cccnc34)c(C)c2)C1 [Compound 153] | 0.1 to 1
Cc1cc(C(=O)N2CC(Oc3ccccc3)C2)ccc1NS(=O)(=O)c1cccc2cccnc12 [Compound 106] | < 0.1
O=C(Nc1ccccn1)OC1CN(C(=O)c2ccc(NS(=O)(=O)c3cccc4cccnc34)c(F)c2)C1 [Compound 162, 1-(3-Fluoro-4-(quinoline-8-sulfonamido)benzoyl)azetidin-3-yl pyridin-2-ylcarbamate] | > 10
Cc1cc(C(=O)N2CC(OC(=O)NC(C)C)C2)ccc1NS(=O)(=O)c1cccc2cccnc12 [Compound 132, 1-(3-Methyl-4-(quinoline-8-sulfonamido)benzoyl)azetidin-3-yl isopropylcarbamate] | 0.1 to 1
O=C(NC1CN(C(=O)c2ccc(NS(=O)(=O)c3cccc4cccnc34)c(F)c2)C1)c1ccccn1 [Compound 121, N-(1-(3-Fluoro-4-(quinoline-8-sulfonamido)benzoyl)azetidin-3-yl)picolinamide] | 1 to 10
CN(c1ccccc1)C1CN(C(=O)c2ccc(NS(=O)(=O)c3cccc4cccnc34)cc2)C1 [Compound 122] | < 0.1
O=C(c1ccc(NS(=O)(=O)c2cccc3cccnc23)cc1)N1CC(NCc2ccccc2)C1 [Compound 147, N-(4-(3-(benzylamino)azetidine-1-carbonyl)phenyl)quinoline-8-sulfonamide] | 0.1 to 1
C=CCNC(=O)NC1CN(C(=O)c2ccc(NS(=O)(=O)c3cccc4cccnc34)c(OC)c2)C1 [Compound 140, N-(4-(3-(3-Allylureido)azetidine-1-carbonyl)-2-methoxyphenyl)quinoline-8-sulfonamide] | 1 to 10
CC(C)NC(=O)OC1CN(C(=O)c2ccc(NS(=O)(=O)c3cccc4cccnc34)cc2)C1 [Compound 135, 1-(4-(Quinoline-8-sulfonamido)benzoyl)azetidin-3-yl isopropylcarbamate] | 1 to 10
COc1cc(C(=O)N2CC(Oc3ccccc3OC)C2)ccc1NS(=O)(=O)c1cccc2cccnc12 [Compound 158] | < 0.1
Cc1cc(C(=O)N2CC(OC(=O)c3ccccn3)C2)ccc1NS(=O)(=O)c1cccc2cccnc12 [Compound 110, 1-(3-Methyl-4-(quinoline-8-sulfonamido)benzoyl)azetidin-3-yl picolinate] | 0.1 to 1
COc1ccccc1N(C)C1CN(C(=O)c2ccc(S(=O)(=O)Nc3cccc4cccnc34)cc2)C1 [Compound 128] | > 10
COc1ccccc1N(C)C1CN(C(=O)c2ccc(NS(=O)(=O)c3cccc4cccnc34)cc2)C1 [Compound 117] | 0.1 to 1
COc1ccccc1NC1CN(C(=O)c2ccc(NS(=O)(=O)c3cccc4cccnc34)c(F)c2)C1 [Compound 115] | 0.1 to 1
